Data taken from publication PMC3311999 (2011).

Biological target: PI3K (PIK3CA/PIK3R1) (Homo sapiens, UniProt P42336)
Assay: Michaelis-Menten kinetics
Assay type: biochemical

PI3K (PIK3CA/PIK3R1), sequence (P42336 whole entry): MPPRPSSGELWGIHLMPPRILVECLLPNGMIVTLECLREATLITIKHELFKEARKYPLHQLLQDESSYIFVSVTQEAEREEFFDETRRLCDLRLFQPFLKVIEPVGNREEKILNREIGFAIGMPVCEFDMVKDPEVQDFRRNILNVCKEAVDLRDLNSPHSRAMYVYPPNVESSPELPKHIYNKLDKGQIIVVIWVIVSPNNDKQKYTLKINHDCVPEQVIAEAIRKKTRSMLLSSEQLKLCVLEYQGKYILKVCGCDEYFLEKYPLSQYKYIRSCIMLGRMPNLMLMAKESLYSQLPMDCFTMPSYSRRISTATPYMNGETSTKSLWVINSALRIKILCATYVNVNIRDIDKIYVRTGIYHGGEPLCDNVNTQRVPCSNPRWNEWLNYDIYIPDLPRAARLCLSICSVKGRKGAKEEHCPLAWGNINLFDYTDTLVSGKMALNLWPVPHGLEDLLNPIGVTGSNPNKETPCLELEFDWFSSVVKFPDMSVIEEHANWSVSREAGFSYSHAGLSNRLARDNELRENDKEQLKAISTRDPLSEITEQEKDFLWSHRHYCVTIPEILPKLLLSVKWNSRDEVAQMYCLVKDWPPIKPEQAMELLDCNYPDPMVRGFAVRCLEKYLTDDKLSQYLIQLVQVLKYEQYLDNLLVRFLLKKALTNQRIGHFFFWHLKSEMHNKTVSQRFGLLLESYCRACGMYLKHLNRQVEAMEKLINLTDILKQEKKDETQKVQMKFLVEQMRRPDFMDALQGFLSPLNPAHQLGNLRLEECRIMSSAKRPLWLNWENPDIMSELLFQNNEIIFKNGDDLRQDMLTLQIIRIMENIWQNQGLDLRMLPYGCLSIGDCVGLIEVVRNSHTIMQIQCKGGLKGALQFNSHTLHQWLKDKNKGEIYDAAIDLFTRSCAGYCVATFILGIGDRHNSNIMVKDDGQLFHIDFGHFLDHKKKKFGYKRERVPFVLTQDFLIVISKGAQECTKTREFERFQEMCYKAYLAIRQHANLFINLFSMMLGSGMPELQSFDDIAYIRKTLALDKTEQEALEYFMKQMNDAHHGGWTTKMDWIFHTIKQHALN
PI3K (PIK3CA/PIK3R1), sequence (P27986 2-724 partner): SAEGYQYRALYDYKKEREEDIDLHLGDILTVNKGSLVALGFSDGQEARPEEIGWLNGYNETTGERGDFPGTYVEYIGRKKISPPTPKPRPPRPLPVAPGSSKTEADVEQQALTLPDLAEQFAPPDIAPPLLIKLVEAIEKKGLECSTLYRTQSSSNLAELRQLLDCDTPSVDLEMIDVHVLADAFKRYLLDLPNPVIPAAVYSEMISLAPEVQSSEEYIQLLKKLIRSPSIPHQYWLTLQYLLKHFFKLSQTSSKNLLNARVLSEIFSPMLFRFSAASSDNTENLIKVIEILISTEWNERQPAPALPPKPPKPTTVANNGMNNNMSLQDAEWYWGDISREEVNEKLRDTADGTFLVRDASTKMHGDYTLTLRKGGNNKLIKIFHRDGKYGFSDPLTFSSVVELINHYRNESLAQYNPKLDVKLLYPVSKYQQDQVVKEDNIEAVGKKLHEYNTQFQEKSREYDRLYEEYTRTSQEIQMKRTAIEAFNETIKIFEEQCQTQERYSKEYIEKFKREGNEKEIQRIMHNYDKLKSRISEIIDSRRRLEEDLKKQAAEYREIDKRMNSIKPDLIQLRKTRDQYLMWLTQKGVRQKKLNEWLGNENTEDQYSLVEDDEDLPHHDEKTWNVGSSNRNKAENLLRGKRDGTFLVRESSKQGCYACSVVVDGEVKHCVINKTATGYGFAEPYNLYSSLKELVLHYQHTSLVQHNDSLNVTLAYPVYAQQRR

Row | Substance | Km
1 | FL-PIP2 | 44.8 ± 9.8 µM
2 | BODIPY-PIP2 | 68.7 ± 5.2 µM
